From article PMC7520419 (The AAPS Journal, 2020)
≈ marks a conversion by molar mass, not a printed value. Like-named read-outs stand apart in the source and are kept apart here.

Key:
[1] = Effective human jejunum permeability (Peff,man) used in the PBPK model; assay type: in vitro ADME; conditions: human, 1 h
Experimental: Permeation rates of the compounds, including reference compounds, were measured in the apical-to-basolateral (AB) direction. The donor and receiver wells were sampled immediately after application of the compound to the donor well to determine baseline concentrations, and again after 1 h. Quantification was done using high-performance liquid chromatography combined with mass spectrometry (HPLC-MS/MS) analysis and monolayer integrity was verified by analyzing the receiver samples for LuY fluorescence in a plate reader.

[2] = PBPK food effect modeling (Simcyp V17.1 and/or GastroPlus V9.5; Model 1 / Model 2); design: species or system human
[3] = physchem; conditions: pH 6.5, aqueous buffer, thermodynamic from solid
Experimental: (§1) The solubility of the drug substances was determined in biorelevant media as well as in aqueous buffers at different pH. Fasted state simulated gastric fluid (FaSSGF) ([37]), fasted state simulated intestinal fluid (FaSSIF-V2) ([38]), and fed state simulated intestinal fluid (FeSSIF-V2) ([39]) were prepared according to the instructions provided by Biorelevant (Biorelevant.com Ltd., London, UK). […] For neutral compounds, solubility was determined at pH 2, pH 4, and pH 7.
(§2) For freely soluble compounds, the extent of solubilization was measured only up to 10 mg/mL.

[4] = physchem; conditions: 37 °C, thermodynamic from solid
Experimental: as §1, §2

[5] = tested on: Caco-2; conditions: cited from earlier work
[6] = design: Food Effect (graded symbols): key to the marks not given beside the values; conditions: cited from earlier work
[7] = BCS classification; assay type: physicochemical
[8] = Solubility measurement in aqueous buffer solutions; conditions: pH 6.5, aqueous buffer, thermodynamic from solid
Experimental: as §1, §2

[9] = Solubility measurement in biorelevant media (FaSSIF-V2, FeSSIF-V2); conditions: 37 °C, thermodynamic from solid
Experimental: as §1, §2

[10] = pKa; conditions: pKa (a, acidic)
[11] = not generated within this working group; ref Table I; cited from earlier work
[12] = design: method as in Table I reference column; conditions: not generated within this working group; ref Table I; cited from earlier work
[13] = not generated within this working group, ref Table I
[14] = Model 1, fasted, ref published clinical data (Table I)
[15] = Model 1, fed, ref published clinical data (Table I)
[16] = Model 1, ref published clinical data (Table I)
[17] = Model 2, fasted, ref published clinical data (Table I)
[18] = Model 2, fed, ref published clinical data (Table I)
[19] = Model 2, ref published clinical data (Table I)
[20] = clinically observed PK change (AUC, Cmax) fed vs fasted, compiled by literature search
[21] = direction, AUC and/or Cmax ratio fed to fasted, BE criteria 0.8–1.25, ref drug label

AUC Ratio of Ratios (Sim'd / Obs'd) ([2]; Model 1) | Cmax Ratio of Ratios (Sim'd / Obs'd) ([2]; Model 1) | BCS [7] | Compound | AUC Ratio of Ratios (Sim'd / Obs'd) ([2]; Model 2) | Cmax Ratio of Ratios (Sim'd / Obs'd) ([2]; Model 2) | Apparent permeability (Caco-2) [5, 13] | Observed AUC(0-inf) Fasted [6, 14] [µg·h/mL] | Observed Cmax Fasted [6, 14] [ng/mL] | Observed AUC(0-inf) Fed [6, 15] [µg·h/mL] | Observed Cmax Fed [6, 15] [ng/mL] | Observed AUC Ratios (Fed/Fasted) [6, 16] | Observed Cmax Ratios (Fed/Fasted) [6, 16] | Food Effect [6, 20] | Food Effect [6, 21] | other results
0.13 | 0.12 | II/IV | Cc1ccc(Nc2nccc(N(C)c3ccc4c(C)n(C)nc4c3)n2)cc1S(N)(=O)=O [Pazopanib] | 0.24 | 0.44 | 16.9 (Caco-2)^^ × 10^−6 cm/s | 824 | 20700 | 2020 | 45200 | 2.45 | 2.19 | Positive (positive if the ratio of fed > fasted) | Positive (positive if the ratio of fed > fasted) | fasted bioavailability ([6]; 800 mg dose): ~ 21%; fasted bioavailability, range ([6]; 800 mg dose): 14–39%; increase in AUC0-72h with a high-fat meal ([6]; 800 mg dose): 2.3 fold; increase in Cmax with a high-fat meal ([6]; 800 mg dose): 2.1 fold; increase in AUC0-72h with a high-fat meal ([6]; 800 mg dose, listed as pazopanib): approximately 2.3 fold; Observed AUC(0-inf) Fasted [6, 17]: 824 µg·h/mL; Observed Cmax Fasted [6, 17]: 20700 ng/mL; Observed AUC(0-inf) Fed [6, 18]: 2020 µg·h/mL; Observed Cmax Fed [6, 18]: 45200 ng/mL; Observed AUC Ratios (Fed/Fasted) [6, 19]: 2.45; Observed Cmax Ratios (Fed/Fasted) [6, 19]: 2.19; solubility [8]: 0.5 µg/mL (≈ 1.14 µM); solubility ([9]; FaSSIF-V2 (fasted state simulated intestinal fluid), FaSSIF solubility): 1.2 µg/mL (≈ 2.74 µM); solubility ([9]; FeSSIF-V2 (fed state simulated intestinal fluid), FeSSIF solubility): 2.8 µg/mL (≈ 6.4 µM)
1.03 | 1.15 | II/IV | CC(C)(C)c1cc(C(C)(C)C)c(NC(=O)c2c[nH]c3ccccc3c2=O)cc1O [Ivacaftor] | – | – | 11.9 (Caco-2)^^ × 10^−6 cm/s | 3.12 | 148 | 9.59 | 637 | 3.07 | 4.30 | Positive (positive if the ratio of fed > fasted) | Positive (positive if the ratio of fed > fasted) | pKa [10]: 9.4; Solubility at pH 6.5 [11]: 0.5^^ μg/ml; FaSSIF solubility [12]: 53^^ μg/ml; FeSSIF solubility [12]: 550^^ μg/ml

Compound | AUC Ratio of Ratios (Sim'd / Obs'd) ([2]; Model 1) | Cmax Ratio of Ratios (Sim'd / Obs'd) ([2]; Model 1) | BCS [7] | AUC Ratio of Ratios (Sim'd / Obs'd) ([2]; Model 2) | Cmax Ratio of Ratios (Sim'd / Obs'd) ([2]; Model 2) | Apparent permeability (Caco-2) [5, 13] | Observed AUC(0-inf) Fasted [6, 14] [µg·h/mL] | Observed Cmax Fasted [6, 14] [ng/mL] | Observed AUC(0-inf) Fed [6, 15] [µg·h/mL] | Observed Cmax Fed [6, 15] [ng/mL] | Observed AUC Ratios (Fed/Fasted) [6, 16] | Observed Cmax Ratios (Fed/Fasted) [6, 16] | Food Effect [6, 20] | Food Effect [6, 21] | other results
CCC[C@H](NC(=O)[C@@H]1[C@H]2CCC[C@H]2CN1C(=O)[C@@H](NC(=O)[C@@H](NC(=O)c1cnccn1)C1CCCCC1)C(C)(C)C)C(=O)C(=O)NC1CC1 [Telaprevir] | 0.42 | 0.26 | – | 0.66 | 0.44 | – | – | – | – | – | – | – | – | – | Effective permeability [1]: 140 ×10⁻⁶ cm/s; solubility [3]: 85 µg/mL (≈ 125 µM); solubility ([4]; FaSSIF solubility): 120 µg/mL (≈ 177 µM); solubility ([4]; FeSSIF solubility): 80 µg/mL (≈ 118 µM); Apparent permeability (Caco-2) ([5]; Caco-2): 4.4 (Caco-2)^^ × 10^−6 cm/s; Food Effect (graded symbols) ([6]; human, in vivo): +++; Observed AUC Ratios (Fed/Fasted) ([6]; human, in vivo): 3.71; Observed AUC(0-inf) Fasted ([6]; human, in vivo): 3.58 µg·h/mL; Observed AUC(0-inf) Fed ([6]; human, in vivo): 13.3 µg·h/mL; Observed Cmax Fasted ([6]; human, in vivo): 349 ng/mL; Observed Cmax Fed ([6]; human, in vivo): 2080 ng/mL; Observed Cmax Ratios (Fed/Fasted) ([6]; human, in vivo): 5.96
